According to US20170368018A1, “USE OF ELLAGIC ACID DIHYDRATE IN PHARMACEUTICAL FORMULATIONS TO REGULATE BLOOD GLUCOSE LEVELS” (HALO LIFE SCIENCE, LLC, priority 2014, published 2017):
“Also recorded” adds a separate entry of the source.

What was measured:
[1] = tested on: mouse myoblast C2C12 cells; assay: Glucose uptake, 2-NBDG labeling, flow cytometry, C2C12; assay type: cell-based
Procedure: Cellular assays were performed using mouse myoblast C2C12 cells and MEF cells. […] Increased glucose uptake was indicated as increasing signal of 2-NBDG ([…]) in cells. Glucose uptake assays were carried out in a final incubation volume of 50 μl consisting of, 2-NBDG), (100 μM) in 1× Phosphate Buffered Saline w/Ca+, Mg+ (PBS++). The same buffer was used for washing cells. Insulin was used as a positive control. All testing compounds were prepared in 10% DMSO and diluted 1:100 for a final concentration of 0.1% DMSO (vehicle). Cells were culture to 70-90% confluence and then washed twice with PBS++. Cells were incubated for 30 minutes at 37° C. in PBS++. Nuclear stain, HCS CellMask stain (blue, Invitrogen), and/or testing compounds (ellagic acid dihydrate, insulin, or vehicle) were added. Cells were incubated for 30 min at 37° C. Cells were washed twice with PBS++and incubated with 2-NBDG for 10 minutes. Cells were washed thrice with PBS++and then imaged in PBS++. Alternatively, the final PBS wash was removed and cells were incubated with Accutase (Invitrogen) for 10 min at 37° C., neutralized with 10% FBS in 1× PBS, and analyzed by flow cytometry. An additional experiment was performed to measure glucose uptake in C2C12 cells exposed to metformin, insulin and ellagic acid dihydrate 2 (batch 2). FIG. 5C.

MEF cells = assay: Glucose uptake, 2-NBDG labeling, high-content imaging (Operetta), MEFs; assay type: cell-based, mouse
Procedure: Increased glucose uptake was indicated as increasing signal of 2-NBDG ([…]) in cells. Glucose uptake assays were carried out in a final incubation volume of 50 μl consisting of, 2-NBDG), (100 μM) in 1× Phosphate Buffered Saline w/Ca+, Mg+ (PBS++). The same buffer was used for washing cells. Insulin was used as a positive control. All testing compounds were prepared in 10% DMSO and diluted 1:100 for a final concentration of 0.1% DMSO (vehicle). Cells were culture to 70-90% confluence and then washed twice with PBS++. Cells were incubated for 30 minutes at 37° C. in PBS++. Nuclear stain, HCS CellMask stain (blue, Invitrogen), and/or testing compounds (ellagic acid dihydrate, insulin, or vehicle) were added. Cells were incubated for 30 min at 37° C. Cells were washed twice with PBS++and incubated with 2-NBDG for 10 minutes. Cells were washed thrice with PBS++and then imaged in PBS++. Alternatively, the final PBS wash was removed and cells were incubated with Accutase (Invitrogen) for 10 min at 37° C., neutralized with 10% FBS in 1× PBS, and analyzed by flow cytometry. An additional experiment was performed to measure glucose uptake in C2C12 cells exposed to metformin, insulin and ellagic acid dihydrate 2 (batch 2). FIG. 5C. Glucose uptake in ellagic acid dihydrate treated cell culture was measured and compared to glucose uptake under insulin or ellagic acid treatment. […] Flow cytometry results were run in triplicate with 1000 cells per batch.

[2] = tested on: GLUT4-GFP in mouse myoblast C2C12 cells; assay: Localization of glucose transporter GLUT4-GFP, time-lapse confocal microscopy; assay type: cell-based; conditions: C2C12, 4000 nM
Procedure: Induction of glucose transporter, GLUT-4, in ellagic acid dihydrate treated cell cultures was studied. Cellular assays were performed using mouse myoblast C2C12 cells. The cells were infected with a fusion glucose transporter 4 green fluorescent protein (GLUT4-GFP). This protein allows the visualization of GLUT4 by imaging the GFP under fluorescent time-lapse microscopy. Frames were compiled to produce time-lapse images of cellular changes with no treatment or treatment with insulin. The localization of glucose transporter (GLUT4-GFP) was performed in final incubation volume of 505 μL, consisting of 500 μL of Hank's Buffer (Invitrogen) and 5 μl of tested compounds. Insulin was used as positive controls and vehicle (0.1% DMSO) as the negative control. All test compounds were prepared in 10% DMSO and diluted 1:100 for a final concentration of 0.1% DMSO (vehicle). The cells were rinsed in Hank's Buffer thrice and then incubated in Hank's Buffer at 37° C. for one hour. The test compounds were added (ellagic acid dihydrate, insulin, or vehicle) and the cells were imaged using laser-confocal microscopy (Leica TCS SP5 X) with FITC fluorescent filters to determine changes in GLUT4-GFP localization. Time-lapse images (TIF) were collected and post-processed using Image-J (NIH) for video construction.

[3] = tested on: AKT / Phos AKT in C2C12 cells; assay: AKT:phos AKT ratio by immunocytochemistry, high-content imaging; assay type: cell-based, mouse; conditions: C2C12, serum starved 1 hr, treated 30 minutes, 4 nM-4 μM, FIG. 8
Procedure: Stimulation of AKT pathways and MAPK pathways in ellagic acid dihydrate, metformin, and insulin treated cell cultures was performed. Insulin stimulates glucose uptake into cells by increasing GLUT4 activation, and AKT, specifically phos-AKT, signaling alters GLUT4 translocation. […] Cellular assays were performed using mouse myoblast C2C12 cells. […] Serum starved cells (1 hr) were treated for 30 minutes with each of the tested compounds.

[4] = tested on: p44/42 MAPK / Phos p44/42 MAPK in C2C12 cells; assay: p44/42 MAPK:phos p44/42 MAPK ratio by immunocytochemistry, high-content imaging; assay type: cell-based, mouse; conditions: C2C12, treated 30 minutes, 400 nM, 0.04 nM, FIG. 9
Procedure: Stimulation of AKT pathways and MAPK pathways in ellagic acid dihydrate, metformin, and insulin treated cell cultures was performed. Insulin stimulates glucose uptake into cells by increasing GLUT4 activation, and AKT, specifically phos-AKT, signaling alters GLUT4 translocation. […] Cellular assays were performed using mouse myoblast C2C12 cells. Relative protein levels of AKT:phos AKT and p44/42 MAPK:phos p44/42 MAPK were determined.
Serum starved cells (1 hr) were treated for 30 minutes with each of the tested compounds. Ratios of phosphorylated to non-phosphorylated proteins were determined using immunocytochemistry labeling (anti-AKT, anti-Phos AKT; or anti-p44/42 MAPK, anti-Phos p44/42 MAPK) on a high-content imaging system (Operetta, Perkin Elmer) using the fluorescent signal of anti-rabbit Alexa 647. Increased phosphorylation is indicated as decrease in signal of AKT:Phos AKT ratio (log2 scale) and p44/42 MAPK:Phos p44/42 MAPK ratio (log2 scale) relative to vehicle treated cells.

In the case of `O.O.O=c1oc2c(O)c(O)cc3c(=O)oc4c(O)c(O)cc1c4c23` [ellagic acid dihydrate], the “increase in glucose uptake in myoblasts relative to fibroblasts” value ([1]; C2C12 (FIGS. 5A, 5B) versus MEFs (FIGS. 4A, 4B)) was about 4 ×, the “increase in glucose uptake compared with metformin” value ([1]; C2C12, 4000 nm, FIG. 5C (batch 2)) was “greater increase in glucose uptake than metformin” and the “dose effect for increasing glucose uptake” value ([1]; C2C12, flow cytometry, 4 μM-0.04 nM) was “showed a dose effect”. The “glucose uptake (2-NBDG signal) relative to vehicle” value ([1]; C2C12, flow cytometry, FIG. 5A) was “significantly greater than vehicle treated”, the “glucose uptake relative to insulin” value ([1]; myoblasts, at most concentrations tested, significant at 4 nM-4 μM, dihydrate) was “significantly more glucose uptake relative to insulin; also recorded: exceeded the uptake induced by insulin” and the “dose effect for increasing glucose uptake” value (MEF cells) was “showed a dose effect”. The “glucose uptake (signal of 2-NBDG) in comparison to vehicle” value (MEF cells) was “showed an increase in glucose uptake”, the “glucose uptake (2-NBDG signal) relative to vehicle treated or Insulin treated cells” value (MEF cells; data not shown) was “significantly greater” and the “GLUT4-GFP around the cell nucleus” value [2] was “decrease in nuclear GLUT4-GFP”. The “ruffling of filopodia at the surface of the cell” value [2] was “rapid ruffling of filopodia”, the “time course of GLUT4-GFP and membrane changes compared with insulin” value [2] was “slightly delayed” and the “AKT:Phos AKT ratio (log2 scale) relative to vehicle treated cells” value [3] was “increase in AKT relative to Phos-AKT signal”. The “p44/42 MAPK:Phos p44/42 MAPK ratio relative to vehicle treated cells” value [4] was “increase in p44/42 MAPK”.
